In patent US11905231B1, “Solid forms, salts and polymorphs of anti-fibrotic compounds” (Certa Therapeutics Pty Ltd, priority 2023, dated 2024):
In brackets after ≈: the same amount, converted by molar mass.

Tests used:
[1] = Thermogravimetric Analysis (TGA) weight loss; type: physicochemical; conditions: for Total weight loss by TGA: from r.t. to 350° C. (or to decomposition if lower); for Weight loss (TGA): when heated from about 25° C. to about 120° C.
[2] = Oral pharmacokinetic study in Sprague-Dawley rats; conditions: rat; for F (fraction absorbed, bioavailability): based on AUCInf
Description: Bioavailability is determined by the equation AUC=F·D/CLT, wherein AUC is the area under the plot of plasma concentration, F is the absolute bioavailability, D is the dose, and CLT is the total clearance.
The rats received a single oral dose of 20 mg/kg body weight (b.w.). The doses were prepared as a 2.0 mg/mL suspension in a vehicle of 20 mM Na2HPO4 buffer containing 5% (v/v) DMSO, 0.4% (v/v) 1M NaOH and 0.4% (v/v) Tween 80 and a dose volume of 10 mL/kg b.w.
Pharmacokinetic analysis was performed on the average plasma concentration for each time point.

[3] = physchem; conditions: 37 °C, thermodynamic from solid
Description: The term “FaSSIF media” refers to Fasted State Simulated Intestinal Fluid media prepared using FaSSIF powder and buffer concentrate obtained from the commercial source Biorelevant (London, UK, biorelevant.com). The FaSSIF powder contains sodium taurocholate, lecithin, sodium chloride, monobasic sodium phosphate and sodium hydroxide. The FaSSIF media is prepared as described at https://biorelevant.com/learning_center/what-is-fassif/. Briefly the pH6.5 buffer containing 0.42 g of NaOH, 3.95 g of NaH2PO4·H2O and 6.19 g of NaCl was dissolved in 0.9 L of purified water and the pH of the solution was adjusted to 6.5 using sodium hydroxide 1N or hydrochloric acid 1N and made up to volume (1 L) with purified water at room temperature. Dissolve 2.24 g of the FaSSIF powder in 0.5 L of the pH6.5 buffer, stirring until the powder is completely dissolved, and then make up to volume (1 L) with buffer at room temperature.
The samples were stirred using a magnetic stirrer at 37° C. […] The samples were filtered via centrifugation (12,000 rpm, 5 min). The supernatant was diluted (2×) with HPLC grade solvent and analyzed by HPLC.
HPLC gradient was as follows:
The pH 1.2, pH 4.5, and pH 6.8 media were prepared as standard aqueous buffered solutions following USP <39>.
As used herein, the term “FaSSIF media” means Fasted Stated Simulated Intestinal Fluid media prepared according to the method known in the art.

[4] = Dynamic Vapor Sorption (DVS) hygroscopicity; conditions: at 80% RH, 25° C., measured during 0% RH to 95% RH increase
Description: The change in water content is recited as a % change in mass of the starting sample and all such water sorption (DVS) values recited herein will be understood to explicitly include numerical values within a +/−0.2% variance.
The humidity is held constant at 30% RH until the mass change of the sample reaches equilibrium, as determined by the rate of change of weight being 0.01%/minute or less. The humidity is then changed to the next step value and the consequent mass change measured, and so on.
The hygroscopicity values recited herein refer to total water gain since the start of the experiment only and so may not necessarily be equivalent to the actual total water content of the sample.

[5] = single oral dose 20 mg/kg, 0.5 h post dose
[6] = single oral dose 20 mg/kg, 1 h post dose
[7] = single oral dose 20 mg/kg, 2 h post dose
[8] = single oral dose 20 mg/kg, 4 h post dose
[9] = single oral dose 20 mg/kg, 8 h post dose
[10] = single oral dose 20 mg/kg, 24 h post dose
[11] = single oral dose 20 mg/kg, plasma
[12] = single oral dose 20 mg/kg, plasma, mean
[13] = single oral dose 20 mg/kg, plasma, extrapolated area under the curve
[14] = Sprague-Dawley, in vivo, po, 20 mg/kg
[15] = FaSSIF (pH 7.5), pH 7.5, fassif
[16] = FeSSIF (pH 7.8), pH 7.8, fessif
[17] = pH 1.2 aqueous buffer, pH 1.2, simulated gastric fluid

C#CCOc1ccc(/C=C/C(=O)Nc2ccccc2C(=O)O)cc1OC.N [Ammonium salt]
Weight loss by TGA ([1]; from 0° C. to 100° C.): 7.07% from 0 °C to | Weight loss by TGA ([1]; from 100° C. to 170° C.): 4.48% from 100 °C to | Weight loss by TGA ([1]; from r.t. to 120° C.): 8.94% from r.t. to | Total weight loss by TGA [1]: 11.55% total weight | Maximum plasma concentration (Cmax) compared to the other tested compounds ([2]; single oral dose 20 mg/kg): highest maximum plasma concentration | Mean concentration (plasma) [2, 5]: 32700 ng/mL | Mean concentration (plasma) [2, 6]: 44033 ng/mL | Mean concentration (plasma) [2, 7]: 35033 ng/mL | Mean concentration (plasma) [2, 8]: 20833 ng/mL | Mean concentration (plasma) [2, 9]: 14400 ng/mL | Mean concentration (plasma) [2, 10]: 575 ng/mL | AUCExtr [2, 11]: 0.932% | AUClast [2, 12]: 313.832 µg·h/mL | Cmax [2, 12]: 44033 ng/mL | t1/2 [2, 12]: 3.62 h | tmax [2, 12]: 1.00 h | AUCInf [2, 13]: 317.034 µg·h/mL | F (fraction absorbed, bioavailability) ([2]; single oral dose 20 mg/kg): 64%

C#CCOc1ccc(/C=C/C(=O)Nc2ccccc2C(=O)O)cc1OC [Free form]
Weight loss by TGA ([1]; from r.t. to 120° C.): 1.83% from r.t. to | Total weight loss by TGA [1]: 1.83% total weight | AUCExtr [2, 14]: 2.10% | AUCInf [2, 14]: 170.145 µg·h/mL | AUClast [2, 14]: 166.522 µg·h/mL | bioavailability [2, 14]: 35% | half-life [2, 14]: 4.23 h | tmax [2, 14]: 3.67 h | Mean concentration (plasma) ([2]; Sprague-Dawley, in vivo, po, 20 mg/kg, 0.5 h): 9947 ng/mL | Mean concentration (plasma) ([2]; Sprague-Dawley, in vivo, po, 20 mg/kg, 1 h): 16427 ng/mL | Mean concentration (plasma) ([2]; Sprague-Dawley, in vivo, po, 20 mg/kg, 2 h): 13217 ng/mL | Mean concentration (plasma) ([2]; Sprague-Dawley, in vivo, po, 20 mg/kg, 4 h): 11693 ng/mL | Mean concentration (plasma) ([2]; Sprague-Dawley, in vivo, po, 20 mg/kg, 8 h): 8990 ng/mL | Mean concentration (plasma) ([2]; Sprague-Dawley, in vivo, po, 20 mg/kg, 24 h): 586 ng/mL | solubility at 1 h [3, 15]: 1340 µg/mL (≈ 3810 µM) | solubility at 24 h [3, 15]: 1500 µg/mL (≈ 4270 µM) | solubility at 1 h ([3]; FaSSIF, pH 6.5, fassif): 312 µg/mL (≈ 888 µM) | solubility at 24 h ([3]; FaSSIF, pH 6.5, fassif): 103 µg/mL (≈ 293 µM) | solubility at 1 h [3, 16]: 806 µg/mL (≈ 2290 µM) | solubility at 24 h [3, 16]: 400 µg/mL (≈ 1140 µM) | solubility at 1 h ([3]; FeSSIF, pH 5, fessif): 39 µg/mL (≈ 111 µM) | solubility at 24 h ([3]; FeSSIF, pH 5, fessif): 18 µg/mL (≈ 51.2 µM) | solubility at 1 h [3, 17]: 10 µg/mL (≈ 28.5 µM) | solubility at 24 h [3, 17]: 4 µg/mL (≈ 11.4 µM) | solubility at 1 h ([3]; pH 4.5 aqueous buffer): 35 µg/mL (≈ 99.6 µM) | solubility at 24 h ([3]; pH 4.5 aqueous buffer): 6 µg/mL (≈ 17.1 µM) | solubility at 1 h ([3]; pH 6.8 aqueous buffer): 394 µg/mL (≈ 1120 µM) | solubility at 24 h ([3]; pH 6.8 aqueous buffer): 51 µg/mL (≈ 145 µM)

C#CCOc1ccc(/C=C/C(=O)Nc2ccccc2C(=O)O)cc1OC.CC(C)(C)N [tert-Butylamine (TBA) salt]
Weight loss by TGA ([1]; from 25° C. to 120° C.): 0.94% from 25 °C to | Weight loss by TGA ([1]; from 120° C. to 190° C.): 6.91% from 120 °C to | Weight loss by TGA ([1]; from r.t. to 120° C.): 0.94% from r.t. to | Total weight loss by TGA [1]: 7.85% total weight | Weight loss (TGA) [1]: 0.94% | Weight loss (TGA) ([1]; listed as tert-butylamine salt): about 0.94% | Mean concentration (plasma) [2, 5]: 18080 ng/mL | Mean concentration (plasma) [2, 6]: 26967 ng/mL | Mean concentration (plasma) [2, 7]: 29167 ng/mL | Mean concentration (plasma) [2, 8]: 17133 ng/mL | Mean concentration (plasma) [2, 9]: 15433 ng/mL | Mean concentration (plasma) [2, 10]: 918 ng/mL | AUCExtr [2, 11]: 1.83% | AUClast [2, 12]: 287.306 µg·h/mL | Cmax [2, 12]: 32000 ng/mL | t1/2 [2, 12]: 4.18 h | tmax [2, 12]: 1.67 h | AUCInf [2, 13]: 292.817 µg·h/mL | F (fraction absorbed, bioavailability) ([2]; single oral dose 20 mg/kg): 59% | Hygroscopicity by DVS [4]: 1.07% | Hygroscopicity by DVS ([4]; listed as tert-butylamine (TBA)): 1.07% | Hygroscopicity by DVS ([4]; listed as tert-butylamine salt): about 1.07%
